Eight compounds from patent US20250145631A1, “HETEROCYCLIC COMPOUND ACTING ON G12D MUTANT KRAS PROTEIN” (Astellas Pharma Inc., priority 2022, published 2025) can be followed below.

Holding throughout (assay type): cell-based
Experiment [1] deals with T1, KRAS G12D (Homo sapiens, UniProt P01116, G12D).
T1 construct: host or cells: AsPC-1 (human pancreatic cancer line)
Nature of the experiment: KRAS degradation activity by Cell ELISA in AsPC-1 cells (Test Example 1). Particulars: for Dmax: ASPC1, overnight treatment, read-out: Dmax (degradation rate at the concentration showing highest degradation); for Dmax / DC50: Cell ELISA; for DC50: overnight treatment, read-out: DC50 (50% degradation concentration of KRAS). The procedure: The KRAS degradation activity of test compounds was evaluated by measuring the expression levels of KRAS G12D by Cell ELISA.
AsPC-1 cells were seeded at 20 μL per well on 384-well plates (from Greiner bio-one) to give 2.0×10^4 cells per well. As for the cell culture conditions, RPMI 1640 (from Sigma-Aldrich) medium containing 10% fetal bovine serum (from Cytiva) was used in the presence of 5% CO2 at 37° C.
The next day, the test compounds (10 points having final concentrations in the range of 10 μM to 0.3 nM) and DMSO (from FUJIFILM Wako Pure Chemical Corporation), which was the solvent for the test compounds, as a negative control were diluted 500-fold with a fresh medium and were added at 20 μL per well. The cells were cultured overnight. The next day, the culture supernatant was removed, and 4% paraformaldehyde phosphate buffer (from FUJIFILM Wako Pure Chemical Corporation) was added at 20 μL per well. The plates were allowed to stand for 30 minutes at room temperature to thus immobilize the cells. Then, the supernatant was removed, and 0.1% Triton X-100 (from Amersham Biosciences)-containing Phosphate buffered saline (PBS; from FUJIFILM Wako Pure Chemical Corporation) was added at 20 μL per well. After allowing to stand for 10 minutes at room temperature, the supernatant was removed. PBS was added at 25 μL per well, and the supernatant was removed to thus wash each well. The washing was performed twice in total. Next, the supernatant was removed, and 0.5% sodium dodecyl sulfate (SDS; from Invitrogen)-containing PBS was added at 20 μL per well. After allowing to stand at room temperature for 10 minutes, the supernatant was removed by a centrifugal operation (using a centrifugal dehydrator machine, the supernatant was removed by the same method hereinafter). PBS was added at 25 μL per well, and the supernatant was removed to thus wash each well. The washing was performed twice in total. The supernatant was removed, and blocking solution (Intercept Blocking Buffer; from Li—COR Biosciences) was added at 20 μL per well. After allowing to stand for 30 minutes at room temperature, the supernatant was removed, and a solution obtained by diluting anti-β-actin antibody (Anti-beta Actin antibody [mAbcam 8226]-Loading Control; from abcam) 1,000-fold with blocking solution and a solution obtained by diluting anti-Ras (G12D Mutant Specific) antibody (Ras (G12D Mutant Specific) (D8H7) Rabbit mAb #14429; from Cell Signaling Technology) and anti-β-actin antibody (from abcam) 1,000-fold with blocking solution were respectively added to positive control wells and the other wells at 15 μL per well as a primary antibody. The plates were allowed to stand overnight at 4° C.
The next day, the supernatant was removed. PBS was added at 25 μL per well, and the supernatant was removed to thus wash each well. The washing was performed twice in total. The supernatant was removed, and a solution obtained by diluting Donkey anti-Mouse IgG H&L (IRDye 680RD) (from Li—COR Biosciences) and Goat anti-Rabbit IgG H&L (IRDye 800CW) (from Li—COR Biosciences) 1,000-fold with blocking solution was added at 15 μL per well as a secondary antibody. A solution obtained by diluting Donkey anti-Mouse IgG H&L (IRDye 680RD) (from Li—COR Biosciences) 1,000-fold with blocking solution was added to a positive control well as a secondary antibody. After allowing to stand for 1 hour at room temperature, the supernatant was removed. PBS was added at […], and the supernatant was removed to thus wash each well. The washing was performed twice in total. After removing the supernatant, the plates were dried with air at room temperature for 2 hours or more, and the 700 nm and 800 nm fluorescent signals were measured with Aerius (from Li—COR Biosciences). […]
(An ELISA detects its analyte on a solid surface through an enzyme-linked reagent.)

Experiment [2] has as its system phosphorylation of ERK (Thr202/Tyr204). The experiment in a line: ERK phosphorylation inhibitory effect by Cell ELISA in AsPC-1 cells (Test Example 2). To be noted: Homo sapiens; for IC50: ASPC1, overnight treatment, Cell ELISA, read-out: IC50 (ERK phosphorylation inhibition). The procedure: The ERK phosphorylation inhibitory effect of test compounds was evaluated by measuring phosphorylation of threonine 202 (Thr202) and tyrosine 204 (Tyr204) of ERK located downstream of the KRAS signal by Cell ELISA.
AsPC-1 cells were seeded on 384-well plates at 20 µL/well to give 2.0×10^4 cells per well. As for the cell culture conditions, RPMI 1640 medium containing 10% fetal bovine serum was used in the presence of 5% CO2 at 37° C.
The next day, the test compounds (10 points having final concentrations in the range of 10 μM to 0.3 nM), trametinib (MEK inhibitor) of a final concentration of […] as positive control and DMSO, which was the solvent for the test compounds, as negative control were diluted 500-fold with a fresh medium and were added at 20 μL per well. The cells were cultured overnight. After culturing, 30% glyoxal solution (40% glyoxal [from Nacalai Tesque]was diluted with PBS) was quickly added at 30 μL per well, and the plates were allowed to stand for 120 minutes at room temperature to thus immobilize the cells. Then, the plates were centrifuged to remove the supernatant (using a centrifugal dehydrator machine, the supernatant was removed by the same method hereinafter), and 0.10% Triton X-100-containing PBS was added at 20 μL per well. After allowing to stand for 10 minutes at room temperature, the supernatant was removed, and the same operation was further repeated. Next, 0.5% SDS-containing PBS was added at 20 μL per well, and after allowing to stand at room temperature for 30 minutes, the supernatant was removed. Subsequently, blocking solution (Intercept Blocking Buffer) was added at 20 μL per well, and the plates were allowed to stand for 1 hour at room temperature. The supernatant was removed, and an ERK (Thr202/Tyr204) phosphorylation antibody (Phospho-p44/42 MAPK (Erk 1/2) (Thr202/Tyr204) (D13.14.4E) XP Rabbit mAb; from Cell Signaling Technology) diluted 2,500-fold with blocking solution was added at 15 μL per well as a primary antibody. The plates were allowed to stand at 4° C. overnight.
The next day, the supernatant was removed. 0.05% Tween-20 (from Thermo Fisher Scientific)-containing PBS was added at 50 μL per well, and the supernatant was removed to thus wash each well. The washing was performed three times in total. After washing, Goat anti-Rabbit IgG H&L (IRDye 800CW) diluted 1,000-fold with blocking solution was added at 15 μL per well as a secondary antibody, and the plates were allowed to stand for 1 hour at room temperature. The supernatant was removed, and each well was washed three times with 0.05% Tween-20-containing PBS in the same manner as after the primary antibody reaction. After removing the supernatant, the plates were dried with air at room temperature for 3 hours or more, and the 800-nm fluorescent signals were measured with Aerius.
With the signaling value at the time of addition of DMSO taken as 100% and with the signaling value at the time of addition of […] trametinib taken as 0%, the 50% inhibitory concentration values (IC50) were calculated by Sigmoid-Emax nonlinear regression analysis. The calculated 50% inhibition represents the inhibition at the highest concentration evaluated (10 μM) for a compound that exceeds the concentration in the evaluation range.
(§1) In the tables presented below, Ex represents Example No. The IC50 of Ex. 13, Ex. 15, and Ex. 16 were calculated using the molecular weights as tetrahydrochloride, and the IC50 of Ex. 14 was calculated using the molecular weight as trihydrochloride.

The test system of experiment [3] is human G12D mutant KRAS-positive pancreatic cancer line AsPC-1. Nature of the experiment: Non-anchorage-dependent cell growth inhibitory effect, spheroid 3D culture (Test Example 3). Particulars: ASPC1, 144 h, AsPC-1 spheroid 3D culture, 6 days; for IC50: CellTiter Glo 2.0, read-out: IC50 (non-anchorage-dependent cell growth inhibition). As for the experimental part: The non-anchorage-dependent cell growth inhibitory effect of test compounds was evaluated by spheroid 3D cell culture.
AsPC-1 cells were seeded on low-cell-adhesive round bottom 384-well plates (PrimeSurface: from Sumitomo Bakelite) at 20 μL (or […])/well to give 5×10^2 cells per well. As for the cell culture conditions, RPMI 1640 medium containing 10% fetal bovine serum was used in the presence of 5% CO2 at 37° C.
The next day, the test compounds (10 points or 6 points having final concentrations in the range of 10 μM to 0.3 nM) and DMSO, which was the solvent for the test compounds, as a negative control were diluted 500-fold (or 100-fold) with a fresh medium and were added at 20 μL (or […]) per well. After culturing in the presence of 5% C02 at 37° C. for 6 days, CellTiter Glo 2.0 (from Promega) was added at 20 μL per well. After stirring with a plate mixer (from FINEPCR) at normal temperature for 1 hour, the luminescent signals were measured with ARVO X3 (from PerkinElmer).
With the signaling value in treatment with DMSO taken as 100% and with the signaling value in the medium alone without cells taken as 0%, the 50% inhibitory concentration values (IC50) were calculated by Sigmoid-Emax nonlinear regression analysis. The calculated 50% inhibition represents the inhibition at the highest concentration evaluated (10 μM) for a compound that exceeds the concentration in the evaluation range.
as §1
On the technique in general: ATP-based viability assays read luminescence as a measure of living cells.

T1 sequence (P01116 1-188 isoform P01116-2 G12D): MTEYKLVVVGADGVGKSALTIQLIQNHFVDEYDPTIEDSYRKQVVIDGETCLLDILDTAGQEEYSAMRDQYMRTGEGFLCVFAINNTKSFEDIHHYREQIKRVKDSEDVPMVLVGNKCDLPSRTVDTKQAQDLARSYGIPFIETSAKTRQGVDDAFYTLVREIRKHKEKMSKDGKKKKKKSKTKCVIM

As to `Cc1c(F)cc2[nH]ncc2c1-c1c(C2CC2)cc2c(N3C[C@@H]4C[C@H]3CN4)nc(OC3CCOCC3)nc2c1OCc1ccc(C(=O)N2C[C@H]3C[C@@H]2CN3Cc2ccc3c(c2)C(=O)N(C2CCC(=O)NC2=O)C3=O)cc1` (some centres unmarked) [Example 4], the Dmax in experiment [1] is 40%. The “degradation rate at the highest concentration evaluated (printed in DC50 column)” value in experiment [1] (at 10 μM) came out at 40% at 10 μM. The inhibition at 10 µM came out at 33% in experiment [2] (ASPC1, at 10 μM, read-out: ERK phosphorylation inhibition at the highest concentration evaluated) and 22% in experiment [3] (at 10 μM, read-out: cell growth inhibition at the highest concentration evaluated).

By IC50 is commonly meant the concentration that gives 50% inhibition. Regarding `Cc1nc(N2CCN(C(=O)c3ccc(COc4c(-c5c(C)c(F)cc6[nH]ncc56)c(C5CC5)cc5c(N6C[C@@H]7C[C@H]6CN7)nc(OC6CCOCC6)nc45)cc3)CC2)ccc1N1CCC(=O)NC1=O` (atropisomer, axis not shown) [Example 14], in experiment [1], the Dmax was found to be 51% and the DC50 turned out to be 2180 nM. The IC50 in experiment [2] was 1510 nM. Besides, the IC50 in experiment [3] came out at 1120 nM.

As to `Cc1c(N2CCC(=O)NC2=O)ccnc1OC1CCN(C(=O)c2ccc(COc3c(-c4c(C)c(F)cc5[nH]ncc45)c(C4CC4)cc4c(N5C[C@@H]6C[C@H]5CN6)nc(OC5CCOCC5)nc34)cc2)CC1` (atropisomer, axis not shown) [Example 21], in experiment [1], the Dmax stood at 52% and the DC50 turned out to be 4960 nM. Further, the IC50 in experiment [2] stood at 2280 nM. For the same compound, the IC50 in experiment [3] turned out to be 852 nM.

Take `Cc1c(F)cc2[nH]ncc2c1-c1c(C2CC2)cc2c(N3C[C@@H]4C[C@H]3CN4)nc(OC3CCOCC3)nc2c1OCc1ccc(C(=O)N2CCN(Cc3ccc4c(N5CCC(=O)NC5=O)nn(C)c4c3)C[C@H]2C)cc1` (atropisomer, axis not shown) [Example 15]: in experiment [1], the Dmax amounted to 60% and the DC50 worked out at 406 nM. Further, the half-inhibitory concentration (IC50) in experiment [2] is 503 nM. For the same compound, in experiment [3], the IC50 was 211 nM.

Take `Cc1c(F)cc2[nH]ncc2c1-c1c(C2CC2)cc2c(N3C[C@@H]4C[C@H]3CN4)nc(OC3CCOCC3)nc2c1OCc1ccc(C(=O)N2CCC3(CN(Cc4ccc5c(N6CCC(=O)NC6=O)nn(C)c5c4)C3)C2)cc1` (atropisomer, axis not shown) [Example 19]: in experiment [1], the Dmax was determined as 93% and the DC50 worked out at 278 nM. Moreover, the IC50 in experiment [2] turned out to be 555 nM. In addition, the IC50 in experiment [3] amounted to 242 nM.

As to `CO[C@@H](C)COc1nc(O[C@H]2CCNC2)c2cc(C3CC3)c(-c3c(C)c(F)cc4[nH]ncc34)c(OCc3ccc(C(=O)N4CCN(Cc5ccc6c(c5)n(C)c(=O)n6C5CCC(=O)NC5=O)C[C@@H]4C)cc3)c2n1` (some centres unmarked) [Example 43], in experiment [1], the Dmax came out at 90% and the DC50 was 9 nM. Moreover, the IC50 in experiment [2] came out at 13 nM. In experiment [3], the IC50 was 33 nM.

Regarding `Cc1c(F)cc2[nH]ncc2c1-c1c(C2CC2)cc2c(N3C[C@@H]4C[C@H]3CN4)nc(OC3CCOCC3)nc2c1OCc1ccc(C(=O)N2CCN(Cc3ccc4c(c3)CN(C3CCC(=O)NC3=O)C4=O)C[C@@H]2C)cc1` (stereo partly drawn) [Example 33, 3-(5-{[(3S)-4-{4-[({(7M)-6-cyclopropyl-4-[(1S,4S)-2,5-diazabicyclo[2.2.1]heptan-2-yl]-7-(6-fluoro-5-methyl-1H-indazol-4-yl)-2-[(oxan-4-yl)oxy]quinazolin-8-yl}oxy)methyl]benzoyl}-3-methylpiperazin-1-yl]methyl}-1-oxo-1,3-dihydro-2H-isoindol-2-yl)piperidine-2,6-dione], in experiment [1], the Dmax is 88%. Further, the DC50 in experiment [1] is 79 nM. Also, the IC50 in experiment [2] worked out at 102 nM; in experiment [3] it was 142 nM.

Turning to `Cc1c(F)cc2[nH]ncc2c1-c1c(C2CC2)cc2c(O[C@H]3CCNC3)cc(OC[C@@H]3CCCO3)nc2c1OCc1ccc(C(=O)N2CCN(Cc3ccc4c(c3)n(C)c(=O)n4C3CCC(=O)NC3=O)C[C@@H]2C)cc1` (some centres unmarked) [Example 31], in experiment [1], the Dmax is 71% and the DC50 amounted to 115 nM. Also, the 50% inhibitory concentration (IC50) in experiment [2] worked out at 158 nM. Also, the 50% inhibitory concentration (IC50) in experiment [3] was found to be 147 nM.
